From paper PMC9376091, “Identification of small molecules targeting homoserine acetyl transferase from Mycobacterium tuberculosis and Staphylococcus aureus” (Scientific Reports, 2022)

Key:
[1] = molecular target: T1, HSAT, MetX, Rv3341, (His)6-MetX, (His)6-Rv3341 (Mycobacterium tuberculosis, UniProt P9WJY9); assay: DTNB CoA release endpoint assay; type: biochemical
T1 construct: gene metXA

[2] = molecular target: T2, S. aureus HSAT, HSAT homolog from S. aureus (Staphylococcus aureus, UniProt A0A447ZIT7); assay: DTNB CoA release endpoint assay; type: biochemical; conditions: 1.0 mM L-homoserine, 1.0 mM acetyl-CoA, 5.0 mM MgCl2, Tris-Cl pH 7.4, 37 °C
T2 construct: gene metX; cloned in pET28b (His tag implied), expressed in E. coli BL-21 (DE3, plysS), Ni-NTA and gel filtration; 4QLO used for docking
T2 sequence (A0A447ZIT7 1-322): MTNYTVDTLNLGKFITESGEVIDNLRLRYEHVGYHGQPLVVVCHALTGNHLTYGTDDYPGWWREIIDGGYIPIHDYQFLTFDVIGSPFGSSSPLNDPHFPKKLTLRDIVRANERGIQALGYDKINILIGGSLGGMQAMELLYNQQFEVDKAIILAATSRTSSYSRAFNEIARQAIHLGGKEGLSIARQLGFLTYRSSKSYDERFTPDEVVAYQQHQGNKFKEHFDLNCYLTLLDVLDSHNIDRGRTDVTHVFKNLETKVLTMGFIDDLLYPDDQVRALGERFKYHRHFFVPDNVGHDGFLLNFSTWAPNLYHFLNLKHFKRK

T1 sequence (P9WJY9 whole entry, looked up): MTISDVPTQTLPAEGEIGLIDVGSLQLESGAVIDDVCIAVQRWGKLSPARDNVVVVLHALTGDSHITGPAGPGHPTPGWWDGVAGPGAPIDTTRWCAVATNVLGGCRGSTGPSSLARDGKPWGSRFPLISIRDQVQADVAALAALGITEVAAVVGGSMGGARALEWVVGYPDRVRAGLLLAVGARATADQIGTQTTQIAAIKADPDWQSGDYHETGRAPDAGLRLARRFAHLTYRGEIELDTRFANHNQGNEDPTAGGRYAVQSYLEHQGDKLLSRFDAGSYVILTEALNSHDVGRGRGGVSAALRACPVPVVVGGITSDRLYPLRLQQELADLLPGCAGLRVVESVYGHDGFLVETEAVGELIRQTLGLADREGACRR

Compound	% inhibition at 100 μM ([1]; 1.0 mM L-homoserine, 1.0 mM acetyl-CoA, 5.0 mM MgCl2, Tris-Cl pH 7.4, 37 °C)	% inhibition at 100 μM [2]	inhibition at 100 µM [1]
C/C(=N\NC(=S)N(C)C)c1ccccn1.[Cu][Br] [compound 4, NSC635448]	> 50%	> 60%	–
Oc1cc(CNC2CCCCC2)c(O)cc1CNC1CCCCC1 [compound 3, NSC48443]	–	> 60%	> 50%
CCOC(=O)/C(C#N)=C1\SS/C(=C(/C#N)C(=O)OCC)S1 [compound 2, NSC98363]	–	–	> 50%
O=Nc1c(-c2cccc([N+](=O)[O-])c2)nc2ncccn12 [compound 7, NSC369066]	–	–	> 50%
Cc1ccc(S(=O)(=O)SC/C=C/CSS(=O)(=O)c2ccc(C)cc2)cc1 [compound 5, NSC624158]	–	> 60%	> 50%
COc1cc(-c2ccc(Nc3ccccc3C(=O)O)c(OC)c2)ccc1Nc1ccccc1C(=O)O [compound 6, NSC73735]	–	–	> 50%
Oc1cc(-n2cccn2)c(O)cc1-n1cccn1 [compound 8, NSC645987]	–	–	> 50%
